Test results reported in US20030181449A1 (priority 2003, published 2003).

How the values were obtained:
[1] = molecular target: T1, NMDA receptor glycine site (Rattus norvegicus, UniProt P35439); assay: Test A: Inhibition of binding of [3H]-MDL105,519 to brain membranes; settings: inhibition of 1.2 nM [3H]MDL105,519 binding, brain membranes (rat or human not given)
T1 construct: The rat brain membranes used in the experiments were obtained from Analytical Biological Services Inc; tissue Analytical Biological Services Inc; host or cells: rat brain membranes (cerebral cortex and hippocampus, male Sprague Dawley rats)
Source text: Test A: Inhibition of Binding of [^3H]-MDL105,519:
Binding of compounds to the NMDA receptor glycine site may be assessed by measuring the ability of test compounds to inhibit the binding of tritiated MDL105,519 to brain membranes bearing the receptor.
Briefly, fresh brain tissue including cerebral cortex and hippocampus from male Sprague Dawley rats was homogenized in 0.32 M sucrose and centrifuged at low speed to separate cellular membranes from other cellular components. The membranes were then washed 3 times using deionized water, followed by treatment with 0.04% Triton X-100. Finally, membranes were washed six times in 50 mM Tris citrate buffer, pH 7.4, and frozen at −80° C. until use.
[^3H]MDL105,519 (72 Ci/mmol) was purchased from Amersham. Cold MDL105,519 was purchased from Sigma/RBI. […] On the day of the experiment, brain membranes were thawed at room temperature and suspended in 50 mM tris acetate buffer, pH 7.4 (“TAB”). Seventy-five micro grams per milliliter protein (by using the BioRad dye) were used for competition binding. The experiments were carried out using 96-well plates. […] Non specific binding was determined by using 100 μM of unlabeled MDL105,519. […] After incubation, unbound [^3H]MDL105,519 was removed by filtration onto GF/B Unifilter plates using a Packard harvester. Filters were washed four times with ice cold TAB (total of 1.2 mL buffer). The plates were dried overnight at room temperature and bound radioactivity was measured on a Packard TopCount after the addition of 45 μL per well of the MICROSCINT O.
Human Brain Membranes: Human brain membranes were obtained from Analytical Biological Services Inc., and assays were performed as described for rat membranes.
Data analysis: Data was analyzed using a Microsoft Excel spreadsheet and GraphPad Prizm software and potency of compounds is expressed as the Ki (nM).

[2] = tested on: formalin-induced nociceptive behaviors in rats; assay: Test B: Formalin test (formalin-induced paw flinches); assay type: in vivo, rat; settings: dose 200 (unit not given), dosed three hours prior to formalin
Source text: The Formalin test is an assay that assesses the capacity of a compound to inhibit formalin-induced nociceptive behaviors in rats (D. Dubuisson, et al., Pain 4, 161-174 (1977); H. Wheeler-Aceto et al., Psychopharmacology 104, 3544 (1991); T. J. Coderre, et al., Pain 54, 43-50 (1993)). In the test, two distinctive phases of formalin-induced behaviors are observed. A first phase response, caused by acute nociception to the noxious chemical (formalin) injected into the paw, occurs between zero and five minutes. A quiescent period of 5 to 15 min post injection follows. After the quiescent period a second phase response, caused by sensitization of the central neurons in the dorsal horn, occurs after 15 minutes and lasts up to 60 minutes. Sensitization of the central neurons in the spine augments a noxious afferent input and causes a stronger pain barrage to be transmitted to the brain. Therefore, inhibition of the second phase response indicates a central mechanism of drug action.
The procedure for the formalin test is as follows: male rats are placed in a plexiglass chamber and observed for 30-45 min. to observe their baseline activity. Animals are either pretreated with vehicle or with different doses of a test compound. Animals are dosed with vehicle or test compound three hours prior to injection of 0.05 mL of sterile 1% formalin under the dorsal skin of a hind paw. The number of paw flinches (responses) during the first phase (0-5 min.) and the second phase (20-35 min.) are scored and recorded. Flinch response is compared with the mean score of a saline control group and calculated as percentage inhibition. The ED50 is the dose of compound which produces 50% inhibition of nociceptive response in the first or second phase response. First phase responses may be inhibited by compounds that act peripherally and by compounds that act centrally. Second phase response are inhibited by centrally active compounds.
Student's t-test was used for statistical analysis to determine the significance of compound effects. Data are reported as a dose that yielded a % inhibition of a response.

[3] = tested on: CCI rats (thermal hyperalgesia); assay: Test C: Neuropathic pain model (Chronic Constriction Injury), thermal hyperalgesia, paw withdrawal latency; assay type: in vivo, rat; settings: oral
Source text: Test C: Neuropathic Pain Model (Chronic Constriction Injury):
The anti-hyperalgesic properties of a compound may be tested with the Chronic Constriction Injury (“CCI”) model. The test is a model for neuropathic pain associated with nerve injuries that can arise directly from trauma and compression, or indirectly from a wide range of diseases such as infection, cancer, metabolic conditions, toxins, nutritional deficiencies, immunological dysfunction, and musculoskeletal changes. In the model a unilateral peripheral hyperalgesia is produced in rats by nerve ligation (G. J. Bennett, et al., Pain 33, 87-107 (1988)).
Procedurally, Sprague-Dawley rats (250-350 g) are anesthetized with sodium pentobarbital and the common sciatic nerve is exposed at the level of the mid thigh by blunt dissection through the biceps femoris. A section of nerve (about 7 mm), proximal to the sciatic trifucation, is freed of tissue and ligated at four positions with chromic gut suture. The suture is tied with about 1 mm spacing between ligatures. The incision is closed in layers and the animals are allowed to recuperate. Thermal hyperalgesia is measured using a paw-withdrawal test (K. Hargreaves, et al., Pain 32, 77-88 (1988)). To perform the test, animals are habituated on an elevated glass floor. A radiant heat source is aimed at the mid-plantar hindpaw (sciatic nerve territory) through the glass floor with a 20 second cut-off used to prevent injury to the skin. The latencies for the withdrawal reflex in both hind paws are recorded.
Injured paws with ligated nerves show shorter paw withdrawal latencies compared to the uninjured or sham operated paws. Responses to test compounds are evaluated at different times after oral administration to determine the onset and duration of compound effect. When performing the test, groups of CCI rats receive either vehicle or the test compound orally three times daily for 5 days. Paw withdrawal latencies are measured each day 10 min before and 2 or 3 hr. after the first daily dose. Compound efficacy is expressed as mean percentage decrease of hyperalgesia compared to that of vehicle-treated animals, calculated as follows:
(Mean of vehicle group−Mean of compound group)×100/(Mean of vehicle group).
Data analysis was performed by the multiple means comparison test (Dunnett's test) and results are expressed and compound potencies are expressed as the MED (minimum effective dose), in mg/Kg/day, that yields a percent (%) decrease in hyperalgesia that is statistically significant.

Cc1cc(C)c(-n2nc(O)c3[nH]c4cc(Cl)ccc4c(=O)c3c2=O)c(C)c1 [Ex. 1, 7-Chloro-4-hydroxy-2-(2,4,6-trimethylphenyl)-1,2,5,10-tetrahydropyridazino[4,5-b]quinoline-1,10-dione]
Ki [1]: 39.9 nM | Test B First phase Dose (% Inh.): % inhibition of nociceptive response ([2]; first phase (0-5 min)): 200 (43%) | Test B Second phase Dose (% Inh.): % inhibition of nociceptive response ([2]; second phase (20-35 min)): 200 (54%) | Test C (% Inh.): percent decrease in hyperalgesia ([3]; at the MED): 82% | Test C MED (minimum effective dose) ([3]; three times daily for 5 days): 15 mg/kg/day | melting point: 187 to 189 °C
